System: axonal mitochondrial transport in DRG neurons
Assay: FRAP of Mito-GFP in distal axons of DRG neurons
Format: cell-based, rat
Procedure: MAG or Aggrecan exposures were performed as bath application or on coated substrates. For bath application, dissociated DRGs were cultured for 48 h and treated with 25 μg/ml of MAG-Fc (R&D Systems; 538-MG), 25 μg/ml Fc control (R&D Systems; 110-HG), or 10 μg/ml of Aggrecan (Sigma-Aldrich; A1960) for 4 h. Cultures were pretreated with either Ca^2+ chelator BAPTA-AM (3 μM; Sigma-Aldrich; A1076), ROCK inhibitor Y27632 (10 μM; Sigma-Aldrich; SCM075), HDAC6 inhibitor TubA (10 μM; R&D Systems; 6270), Thapsigargin (1 μM; Sigma-Aldrich; T9033), Rho Activator II (1 μg/ml; Cytoskeleton; CNO3), or equivalent volume DMSO 30 min before MAG-Fc, Aggrecan, or controls. For substrate-bound experiments, adult DRGs were cultured on glass bottom dishes (Greiner) that were coated with 25 μg/ml Aggrecan in addition to the laminin/poly-D-lysine substrate.
Mito-KR- and Mito-GFP-expressing DRG neurons were used for FRAP analyses at 48-72 h after transfection. To evaluate mitochondrial motility in Mito-KR-expressing neurons, Mito-KR signals were photobleached using continual exposure to an argon laser set at 594 nm for 30 s (100% laser power) The bleached ROI was then monitored for recovery using an argon laser set at 580 nm every 10 s over 16 min (13% laser power). For FRAP analyses with Mito-GFP, GFP signals were photobleached in a 50 μm ROI using an argon laser set at 488 nm every 10 s for 16 min (70% laser power). The same excitation was used for post-bleach imaging to assess recovery every 10 s for 16 min. For axon shaft FRAP experiments in Mito-GFP-expressing neurons, ROIs of ˜50 μm in length (without branches) were imaged >100 μm proximal to the growth cone. Prebleach, bleach, and post-bleach sequences were the same as for Mito-GFP above. In all cases, neurons were imaged over 40 s or more to acquire baseline Mito-KR or Mito-GFP signals before photobleaching using an argon laser (580 nm at 13% power for Mito-KR and 488 nm at 31% power for Mito-GFP).
Vesicle trafficking was quantified using differential ImageJ Difference Tracker Plug-in (Andrews et al., 2010). 50-80-μm long unbranched axon segments at approximately the mid-region between growth cone and cell body were analyzed. Kymographs were generated using ImageJ Kymograph Plug-in. For analyses of axon retraction in the CALI experiment, the distance from the distal tip of the growth cone in the pre-CALI image sequence was used as the baseline (t=1 min). The distance between the growth tip at end of the post-CALI sequence and the pre-CALI baseline was measured using LAS-X software. Movement of ≥0.5 μm toward the axon shaft was counted as retracted. Fluorescence emission of the Mito-KR post-CALI was analyzed using ImageJ. For normalizing intensities across FRAP image sets, fluorescence intensity at each time point was scaled using the LAS-X FRAP module so that the residual fluorescence signal at t=0 min (post-bleach) was set at 0 and the prebleach intensity was set at 100% for each bleached ROI. For axon shaft FRAP analyses, each 50-μm bleached ROI was divided into […], and the fluorescence intensity recovery was measured as described above. EMs at 1,900× and 4,800× magnification across the crosssectional surface of each sciatic nerve were used for in vivo analyses of mitochondrial content. A minimum of 75 unmyelinated axons was analyzed for each nerve. All unmyelinated axons from each analyzed image were included for quantitative studies. The total number of mitochondria was determined in each unmyelinated axon in the field and was divided by the total number of unmyelinated axons for all subjects. […] was determined by changes in JC-1 fluorescence. JC-1 exists either as a green fluorescent monomer at depolarized membrane potentials or as an orange-red fluorescent aggregate at hyperpolarized membrane potentials. […]

SMILES | Mito-GFP recovery for thapsigargin-treated cultures, Myc-Miro1K105Q-expressing neurons (1 μM thapsigargin + 10 μM TubA) | Mito-GFP recovery for thapsigargin-treated cultures, Myc-Miro1K629Q-expressing neurons (1 μM thapsigargin + 10 μM TubA) | Mito-GFP recovery in DRGs transfected with WT, K40Q or K40A α-tubulin (10 μM TubA vs DMSO, 960 s after bleach) | mitochondrial transport with combined 10 μM TubA, 3 μM BAPTA-AM and ROCK inhibitor vs each alone (MAG-Fc, Mito-GFP FRAP) | effect on Rho activator-dependent decrease in mitochondrial transport (Rho-Activator + 10 μM TubA) | effect on aggrecan-dependent decrease in Mito-GFP recovery (aggrecan 10 μg/ml, TubA 10 μM or Y27632 10 μM) | effect on MAG-Fc-dependent decrease in Mito-GFP recovery / mitochondrial transport (pretreatment: TubA 10 μM, Y27632 10 μM or BAPTA-AM 3 μM, 960 s after bleach) | effect on thapsigargin-dependent decrease in mitochondrial transport (thapsigargin + 10 μM TubA) | mitochondrial transport in DRG axons (Mito-GFP FRAP) (1 μM thapsigargin)
CN1CCc2c(c3ccccc3n2Cc2ccc(C(=O)NO)cc2)C1 [TubA, tubastatin] | only a modest response to TubA treatment | significantly increased by TubA treatment | significantly increases Mito-GFP recovery in all three conditions | did not increase mitochondrial transport above the results seen | prevented by treatment with TubA | prevented by treatment with TubA | prevented by TubA pretreatment | prevented by inhibition of HDAC6 | –
C/C=C(/C)C(=O)O[C@H]1C(C)=C2[C@H]([C@@H]1OC(=O)CCCCCCC)[C@@](C)(OC(C)=O)C[C@H](OC(=O)CCC)[C@@]1(O)[C@H]2OC(=O)[C@@]1(C)O [thapsigargin] | – | – | – | – | – | – | – | – | similarly decreased mitochondrial transport
